Assays:
RXRα [1] = target: T1, RXRα (Homo sapiens, UniProt P19793); assay: RXRα transactivation, agonist activity; type: cell-based
T1 sequence (P19793 1-462): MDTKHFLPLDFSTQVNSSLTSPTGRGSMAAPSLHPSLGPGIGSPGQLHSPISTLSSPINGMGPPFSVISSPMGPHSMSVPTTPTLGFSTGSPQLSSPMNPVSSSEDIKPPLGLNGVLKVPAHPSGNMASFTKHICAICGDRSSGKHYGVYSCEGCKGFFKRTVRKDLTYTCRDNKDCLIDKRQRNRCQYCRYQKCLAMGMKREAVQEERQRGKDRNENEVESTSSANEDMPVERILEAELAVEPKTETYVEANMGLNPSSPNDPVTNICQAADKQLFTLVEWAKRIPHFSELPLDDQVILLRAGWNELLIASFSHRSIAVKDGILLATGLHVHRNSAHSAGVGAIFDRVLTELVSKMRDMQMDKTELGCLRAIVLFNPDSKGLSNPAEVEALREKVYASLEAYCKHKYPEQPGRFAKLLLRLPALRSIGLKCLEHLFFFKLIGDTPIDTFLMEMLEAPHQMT
Text: The binding and transactivation properties as RXR-receptor agonists can be determined by methods known in the art, such as, for example: Levin et al., Nature, 355, 359-61 (1992); Allenby et al., Proc. Natl. Acad. Sci., 90, 30-4 (1993).

RXRα [2] = target: T1, RXRα; assay: cell-based

| SMILES | melting point [°C] | AC50 (RXRα [1]) [µM] | RXRα transactivation Agonist AC50 (nM) (RXRα [1]) | IC50 (RXRα [2]) [µM] |
| --- | --- | --- | --- | --- |
| COc1c(-c2cccc(C=CC(=O)O)c2)cc(C(C)(C)C)cc1C(C)(C)C [Compound 1, 3-(3′,5′-di-tert-Butyl-2′-methoxy-3-biphenylyl)acrylic Acid] | – | 0.384 | – | – |
| CCCCCOc1c(-c2cc(C=CC(=O)O)ccc2O)cc(C(C)(C)C)cc1C(C)(C)C [Compound 3, 3-(3′,5′-di-tert-Butyl-6-hydroxy-2′-pentyloxy-3-biphenylyl)acrylic Acid] | – | – | inactive | 0.729 |
| COc1c(-c2cc(C=CC(=O)O)ccc2O)cc(C(C)(C)C)cc1C(C)(C)C [Compound 4, 3-(3′,5′-di-tert-Butyl-6-hydroxy-2′-methoxy-3-biphenylyl)acrylic Acid] | – | 0.165 | – | – |
| CC1(C)CCC(C)(C)c2cc(-c3cc(C=CC(=O)O)ccc3O)c(OCc3ccccc3)cc21 [Compound 6, 3-[3-(3-Benzyloxy-5,5,8,8-tetramethyl-5,6,7,8-tetrahydro-2-naphthyl)-4-hydroxyphenyl]acrylic Acid] | – | – | inactive | 0.505 |
| CCCOc1cc2c(cc1-c1cc(C=CC(=O)O)ccc1OCOC)C(C)(C)CCC2(C)C [Compound 8, 3-[3-(3-Propyloxy-5,5,8,8-tetramethyl-5,6,7,8-tetrahydro-2-naphthyl)-4-methoxymethoxyphenyl]acrylic Acid] | – | – | inactive | 1.1 |

The next lines start with the values.

| melting point [°C] | AC50 (RXRα [1]) [µM] | RXRα transactivation Agonist AC50 (nM) (RXRα [1]) | IC50 (RXRα [2]) [µM] | SMILES |
| --- | --- | --- | --- | --- |
| 188 to 189 | – | – | – | COCOc1c(-c2cccc(C=CC(=O)O)c2)ccc2c1C(C)(C)CCC2(C)C |
| – | – | inactive | 0.92 | CC(C)(C)c1cc(-c2cc(C=CC(=O)O)ccc2O)c(OCc2ccccc2)c(C(C)(C)C)c1 [Compound 2, 3-(2′-Benzyloxy-3′,5′-di-tert-butyl-6-hydroxy-3-biphenylyl)acrylic Acid] |
| – | – | inactive | 4 | COCOc1ccc(C=CC(=O)O)cc1-c1cc2c(cc1OCc1ccccc1)C(C)(C)CCC2(C)C [Compound 5, 3-[3-(3-Benzyloxy-5,5,8,8-tetramethyl-5,6,7,8-tetrahydro-2-naphthyl)-4-methoxymethoxyphenyl]acrylic Acid] |
| – | 0.032 | – | – | COCOc1ccc(C#CC(=O)O)cc1-c1cc2c(cc1C)C(C)(C)CCC2(C)C [Compound 7, [4-Methoxymethoxy-3-(3,5,5,8,8-pentamethyl-5,6,7,8-tetrahydro-2-naphthyl)phenyl]propynoic Acid] |
| – | – | inactive | 0.631 | CCCCCOc1cc2c(cc1-c1cc(C=CC(=O)O)ccc1OCOC)C(C)(C)CCC2(C)C [Compound 9, 3-[3-(3-Pentyloxy-5,5,8,8-tetramethyl-5,6,7,8-tetrahydro-2-naphthyl)-4-methoxymethoxyphenyl]acrylic Acid] |
